Test results from publication PMC7377239, “Cardiovascular Effects of Polychlorinated Biphenyls and Their Major Metabolites” (Environmental Health Perspectives, 2020).
Like-named read-outs stand apart in the source and are kept apart here.

System: iCell cardiomyocytes (human iPSC-derived cardiomyocytes)
Experiment: Intracellular Ca2+ flux / beating parameters in iCell cardiomyocytes (FLIPR tetra), 90 min or 24 h
Type: cell-based
Conditions: for activity at 0.01 µM / activity at 0.1 µM / activity at 1 µM / activity at 10 µM / activity at 100 µM: Homo sapiens, Cardiomyocyte, 0.00 µM = 100.00; for activity at 0.1 µM: 0.10 µM
How it was run: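 Gelatin-plated iCell cardiomyocytes (5,000/well) were dye-loaded for 2 h at 37 °C, then exposed for 90 min or 24 h to PCBs/metabolites (5× plates at 0.05–500 µM; 0.5% DMSO final) in triplicate. Ca2+ flux was read for 100 s at 8 Hz and 37 °C. Peak height, frequency, spacing CV and decay/rise ratio were vehicle-normalized and fitted with a four-parameter logistic model, with POD set at 1 SD of vehicle.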

[1] = 1.5 h, 90min, read-out: cm.amp.avg.90min
[2] = 1.5 h, 90min, read-out: cm.amp.cv.90min
[3] = 1.5 h, 90min, read-out: cm.bpm.90min
[4] = 1.5 h, 90min, read-out: cm.decay.rise.90min
[5] = 1.5 h, 90min, read-out: cm.spacing.cv.90min
[6] = 24 h, 24hrs, read-out: cm.amp.avg.24hrs
[7] = 24 h, 24hrs, read-out: cm.amp.cv.24hrs
[8] = 24 h, 24hrs, read-out: cm.bpm.24hrs
[9] = 24 h, 24hrs, read-out: cm.decay.rise.24hrs
[10] = 24 h, 24hrs, read-out: cm.spacing.cv.24hrs

SMILES: Oc1cc(Cl)c(-c2cc(Cl)ccc2Cl)cc1Cl [4-OH PCB52]
- activity at 0.01 µM [1]: 107%
- activity at 0.01 µM [2]: 94.5%
- activity at 0.01 µM [3]: 97.8%
- activity at 0.01 µM [4]: 98.4%
- activity at 0.01 µM [5]: 115%
- activity at 0.1 µM [1]: 103%
- activity at 0.1 µM [2]: 96.5%
- activity at 0.1 µM [3]: 99.1%
- activity at 0.1 µM [4]: 96.6%
- activity at 0.1 µM [5]: 104%
- activity at 1 µM [1]: 110%
- activity at 1 µM [2]: 99.2%
- activity at 1 µM [3]: 91.5%
- activity at 1 µM [4]: 99.2%
- activity at 1 µM [5]: 108%
- activity at 10 µM [1]: 105%
- activity at 10 µM [2]: 100%
- activity at 10 µM [3]: 58.9%
- activity at 10 µM [4]: 114%
- activity at 10 µM [5]: 102%
- activity at 100 µM [1]: 0%
- activity at 100 µM [2]: 0%
- activity at 100 µM [3]: 0%
- activity at 100 µM [4]: 0%
- activity at 100 µM [5]: 0%
- activity at 0.01 µM [6]: 125%
- activity at 0.01 µM [7]: 96.2%
- activity at 0.01 µM [8]: 105%
- activity at 0.01 µM [9]: 93.1%
- activity at 0.01 µM [10]: 102%
- activity at 0.1 µM [6]: 79.9%
- activity at 0.1 µM [7]: 128%
- activity at 0.1 µM [8]: 95.5%
- activity at 0.1 µM [9]: 89.2%
- activity at 0.1 µM [10]: 94%
- activity at 1 µM [6]: 112%
- activity at 1 µM [7]: 79.4%
- activity at 1 µM [8]: 86.9%
- activity at 1 µM [9]: 101%
- activity at 1 µM [10]: 82.1%
- activity at 10 µM [6]: 80.2%
- activity at 10 µM [7]: 113%
- activity at 10 µM [8]: 86.9%
- activity at 10 µM [9]: 104%
- activity at 10 µM [10]: 96.7%
- activity at 100 µM [6]: 0%
- activity at 100 µM [7]: 0%
- activity at 100 µM [8]: 0%
- activity at 100 µM [9]: 0%
- activity at 100 µM [10]: 0%

SMILES: Oc1cc(Cl)c(-c2cc(Cl)ccc2Cl)cc1Cl [4-OH-PCB 52]
- effect on Ca2+ flux (iPSC-CM, 100 μM, because of loss of cell viability): complete block of Ca^2+ flux
